The values below come from patent publication US20250179033A1 (priority 2021, published 2025).

Series [1] in a line: Toxicity assay in TZM-bl cells. It is filed as cell-based. The following applies: human. Here is the method:
(§1) Compounds were serially diluted starting with 10 mM stocks in DMSO. DMSO concentrations were kept the same for all dilutions used within an assay (either 0.005% or 0.05% depending on highest concentration used). Duplicate 96-well plates were set up with 25 μL compound dilution, 25 μL virus, and 50 μL TZM-bl cells (2×10^5/mL) with DEAE-dextran and incubated at 37° C. 5% CO2 for 48 hr. All compounds were tested in triplicate, with single wells of efavirenz dilutions on each plate. All plates had 3-5 control wells without compound, 1 control well with no cells, and 1 control well with a highly toxic level of DMSO (9%). Inhibition assays were set up in clear tissue-culture treated plates with lysates moved to black assay plates or were set up in black tissue culture-treated plates. Medium was removed and the cells were lysed with Glo Lysis Buffer (Promega, Madison, Wisconsin, United States of America). Luciferase Assay System reagent (Promega, Madison, Wisconsin, United States of America) was added to cells and relative light units (RLU) was measured using an EnSpire instrument (PerkinElmer, Waltham, Massachusetts, United States of America). Toxicity assays were set up in clear tissue culture-treated plates. CellTiter-Blue Cell Viability Assay reagent (Promega) was added to the wells after 46 hr incubation, followed by 2 hr incubation. Sodium lauryl sulfate was added to 1.5% to stop the reaction and the plates were measured for fluorescence (560 nmEx/590 nmEm) using an EnSpire instrument (PerkinElmer, Waltham, Massachusetts, United States of America).

In a further series the test system is TZM-bl cells. As to the kind of experiment: Toxicity assay in TZM-bl cells. It is filed as cell-based. The protocol: as §1
In another series the test system is HIV-1 IIIB (wild-type). As to the kind of experiment: HIV inhibition assay in TZM-bl cells, wild-type. It is filed as cell-based. The following applies: Human immunodeficiency virus 1, IIIB, read-out: IC50 (TZM, WT). The protocol:
(§2) Cells and virus culture: TZM-bl cells (42), HIV-1 IIIB virus (43-45) and HIV-1 IIIB (A17 variant) virus (46) as well are the NNRTI resistant mutants (strain NL4-3) (47) were obtained from the NIH HIV Reagent Program. H9 [derivative of HuT 78]cells (ATCC® HTB176™) were obtained from the American Type Culture Collection (Manassas, Virginia, United States of America). These viruses were grown in H9 cells to high titer, which was tested using a HIV p24 (high sensitivity) The detection kit used was sold under the tradename ALPHALISA® Detection Kit (PerkinElmer, Waltham, Massachusetts, United States of America). The viruses were concentrated using Lenti-X Concentrator (Takara Bio USA, Inc., Mountain View, California, United States of America). Infections of TZM-bl cells with either virus was facilitated with 15 μg/mL DEAE-dextran.
as §1

Series [2] relates to HIV-1 IIIB A17 variant (Y181C/K103N). Briefly: HIV inhibition assay in TZM-bl cells, A17 variant. It is filed as cell-based. The following applies: Human immunodeficiency virus 1, IIIB, TZM-bl. Here is the method: as §2, §1
The target in series [3] is T1, HIV I reverse transcriptase (Human immunodeficiency virus type 1 group M subtype B, UniProt P03366).
T1 construct: purchased Roche
As to the kind of experiment: Reverse transcriptase inhibition assay (Roche kit, ELISA). It is filed as biochemical. The protocol:
NNRTI assay methods: Inhibition of HIV I reverse transcriptase was assessed via a kit from Roche (Indianapolis-Marion County, Indiana, United States of America) using the manufacture's protocol (500 μM final reverse transcriptase reaction amount). […] DMSO concentrations were kept the same for all dilutions used within an assay (0.05%). Final compound concentrations ranged from 5000 nM-0.05 nM with 2-fold serial dilutions. 96-well plates were set up with 20 μL compound dilution, 20 μL reverse transcriptase, and 20 μL template/nucleotides and incubated at 37° C. 5% CO2 for 1 hr in a reaction plate. 50 μL of each reaction was then transferred to a streptavidin conjugated 96-well plate and an ELISA assay was run based on manufacture's protocol. All compounds were tested in sextuplicate, with single wells of efavirenz dilutions on each plate.
A general note: An ELISA detects its analyte on a solid surface through an enzyme-linked reagent.

The mark [4] stands for this setting: Table 3, TZM-bl, ± SEM, minimum 6 replicates.
Where [5] appears, read: read-out: IC50 (TZM, A17), Table 3, TZM-bl, ± SEM, minimum 6 replicates.
Where [6] appears, read: read-out: IC50 (TZM, A17), Table 4, TZM-bl.

Read-outs that look alike come from different tables or passages of the source.

For orientation: CC50 means the concentration giving 50% cytotoxicity. What is called IC50 is the point on the concentration scale where inhibition reaches its midpoint. The term EC50 denotes the concentration giving half of the maximal effect. A higher EC50 goes with a need for much substance. In series [1], `N#Cc1ccc(Nc2nc(N)n(S(=O)(=O)c3cccc4cc(C#N)ccc34)n2)cc1` [Compound 2, 5-[[5-amino-3-(4-cyanoanilino)-1,2,4-triazol-1-yl]sulfonyl]naphthalene-2-carbonitrile] yielded a cytotoxic concentration (CC50) at 48 h of 7.55 µM. For the same molecule, the “Qualitative Cell Toxicity within inhibition range” value in the series with TZM-bl cells is “None”. The “Quantitative Cell Toxicity” value with TZM-bl cells (human, 48 h) amounted to 578 nM. Moreover, the IC50 in the series with HIV-1 IIIB (wild-type) (setting [4]) was 0.00111 ± 0.000198 µM; in the series with HIV-1 IIIB (wild-type) (Table 4, TZM-bl) it was 0.000316 µM; in series [2] (setting [5]), 0.055 ± 0.00401 µM; in series [2] (setting [6]), 0.0244 µM. The molecule further gave an EC50 in series [3] of 0.578 µM.
For `N#Cc1ccc2c(S(=O)(=O)n3nc(Nc4ccc(C#N)c(Cl)c4)nc3N)cccc2c1` [Compound 5, 5-[[5-amino-3-(3-chloro-4-cyano-anilino)-1,2,4-triazol-1-yl]sulfonyl]naphthalene-2-carbonitrile], the CC50 at 48 h in series [1] (Table 4, TZM-bl, read-out: CC50 (TZM)) came to 6.01 µM. In the series with TZM-bl cells (Table 3, TZM-bl), the “Qualitative Cell Toxicity within inhibition range” value is “None”. Moreover, the “Quantitative Cell Toxicity” value in the series on TZM-bl cells (Table 3, TZM-bl) was determined as 1710 nM. Further, the IC50 in the series with HIV-1 IIIB (wild-type) (setting [4]) was 0.00042 ± 7.77e-05 µM; with HIV-1 IIIB (wild-type) (Table 4, TZM-bl), 0.000428 µM; in series [2] (setting [5]), 0.0396 ± 0.0182 µM; in series [2] (setting [6]), 0.0157 µM. The same molecule returned an EC50 in series [3] of 1.71 µM.
For `Cc1cc(S(=O)(=O)n2nc(Nc3ccc(Cl)nc3)nc2N)c(C)cc1Cl` [Compound 27, 1-(4-chloro-2,5-dimethyl-phenyl)sulfonyl-N3-(6-chloro-3-pyridyl)-1,2,4-triazole-3,5-diamine], in the series with TZM-bl cells, the “Qualitative Cell Toxicity within inhibition range” value is listed as “None”. The figures for the IC50 (in the series with HIV-1 IIIB (wild-type) (setting [4]); in series [2] (setting [5])) were 0.0343 ± 0.00992 µM and over 1 µM, respectively.
Regarding `Cc1nc(C)c(S(=O)(=O)n2nc(Nc3ccc(Cl)cc3)nc2N)s1` [Compound 36, N3-(4-chlorophenyl)-1-(2,4-dimethylthiazol-5-yl)sulfonyl-1,2,4-triazole-3,5-diamine], the “Qualitative Cell Toxicity within inhibition range” value with TZM-bl cells was “None”. Moreover, the IC50 is 0.0441 ± 0.0128 µM in the series on HIV-1 IIIB (wild-type) (setting [4]) and over 1 µM in series [2] (setting [5]).
The like results for `Nc1nc(Nc2ccc(Cl)cc2)nn1S(=O)(=O)c1cccc2nonc12` [Compound 37, 1-(2,1,3-benzoxadiazol-4-ylsulfonyl)-N3-(4-chlorophenyl)-1,2,4-triazole-3,5-diamine] were, in that order, “None”, 0.0102 ± 0.00146 µM and over 1 µM.
Taken in the same sequence, the figures for `COc1ccc(Cl)cc1S(=O)(=O)n1nc(Nc2ccc(Cl)cc2)nc1N` [Compound 38, 1-(5-chloro-2-methoxy-phenyl)sulfonyl-N3-(4-chlorophenyl)-1,2,4-triazole-3,5-diamine] were “None”, 0.177 ± 0.0731 µM and over 1 µM.
As to `Nc1nc(Nc2ccc(Cl)cc2)nn1S(=O)(=O)c1ccc(F)c(F)c1F` [Compound 39, N3-(4-chlorophenyl)-1-(2,3,4-trifluorophenyl)sulfonyl-1,2,4-triazole-3,5-diamine], in the series with TZM-bl cells, the “Qualitative Cell Toxicity within inhibition range” value is on record as “None”. For the same molecule, the IC50 in the series on HIV-1 IIIB (wild-type) (setting [4]) is 0.575 ± 0.104 µM; in series [2] (setting [5]), over 1 µM.
As to `Nc1nc(Nc2ccc(Cl)cc2)nn1S(=O)(=O)c1ccc(Br)s1` [Compound 40, 1-[(5-bromo-2-thienyl)sulfonyl]-N3-(4-chlorophenyl)-1,2,4-triazole-3,5-diamine], the “Qualitative Cell Toxicity within inhibition range” value in the series on TZM-bl cells was “None”. The IC50 was 0.0151 ± 0.00312 µM in the series on HIV-1 IIIB (wild-type) (setting [4]) and over 1 µM in series [2] (setting [5]).
For `Nc1nc(Nc2ccc(Cl)cc2)nn1S(=O)(=O)c1cc(Cl)sc1Cl` [Compound 41, N3-(4-chlorophenyl)-1-[(2,5-dichloro-3-thienyl)sulfonyl]-1,2,4-triazole-3,5-diamine], the “Qualitative Cell Toxicity within inhibition range” value in the series with TZM-bl cells was “None”. Further, the IC50 in the series with HIV-1 IIIB (wild-type) (setting [4]) was determined as 0.0101 ± 0.00169 µM; in series [2] (setting [5]), 3.68 ± 10.9 µM.
Taken in the same sequence, the figures for `N#Cc1ccc2c(S(=O)(=O)n3nc(Nc4c(Cl)cc(Cl)cc4Cl)nc3N)cccc2c1` [Compound 42, 5-[[5-amino-3-(2,4,6-trichloroanilino)-1,2,4-triazol-1-yl]sulfonyl]naphthalene-2-carbonitrile] were “None”, 0.0281 ± 0.00675 µM and over 1 µM.
Regarding `N#Cc1cccc(S(=O)(=O)n2nc(Nc3c(Cl)cc(Cl)cc3Cl)nc2N)c1` [Compound 43, 3-[[5-amino-3-(2,4,6-trichloroanilino)-1,2,4-triazol-1-yl]sulfonyl]benzonitrile], the “Qualitative Cell Toxicity within inhibition range” value with TZM-bl cells is recorded as “None”. Besides, the IC50 with HIV-1 IIIB (wild-type) (setting [4]) was 0.0337 ± 0.00993 µM; in series [2] (setting [5]), over 1 µM.
The like results for `CC(=O)Nc1nc(C)c(S(=O)(=O)n2nc(Nc3cc(Cl)c(Cl)cc3Cl)nc2N)s1` [Compound 44, N-[5-[[5-amino-3-(2,4,5-trichloroanilino)-1,2,4-triazol-1-yl]sulfonyl]-4-methyl-thiazol-2-yl]acetamide] were, in that order, “None”, 0.165 ± 0.121 µM and over 1 µM.
Taken in the same sequence, the figures for `N#Cc1ccc(Nc2nc(N)n(S(=O)(=O)c3ccc(C(F)(F)F)nc3)n2)c(Cl)c1` [Compound 45, 4-[[5-amino-1-[[6-(trifluoromethyl)-3-pyridyl]sulfonyl]-1,2,4-triazol-3-yl]amino]-3-chloro-benzonitrile] were “None”, 0.0361 ± 0.00867 µM and over 1 µM.
For `N#Cc1ccc(Nc2nc(N)n(S(=O)(=O)c3cccc4nc(Cl)ccc34)n2)c(Cl)c1` [Compound 46, 4-[[5-amino-1-[(2-chloro-5-quinolyl)sulfonyl]-1,2,4-triazol-3-yl]amino]-3-chloro-benzonitrile], the “Qualitative Cell Toxicity within inhibition range” value in the series with TZM-bl cells was “None”. The IC50 with HIV-1 IIIB (wild-type) (setting [4]) is 0.394 ± 0.264 µM; in series [2] (setting [5]), over 1 µM.
Take `Cc1c(S(=O)(=O)n2nc(Nc3ccc(C#N)cc3)nc2N)sc2ccc(Cl)cc12` [Compound 48, 4-[[5-amino-1-(5-chloro-3-methyl-benzothiophen-2-yl)sulfonyl-1,2,4-triazol-3-yl]amino]benzonitrile]: the “Qualitative Cell Toxicity within inhibition range” value in the series with TZM-bl cells was “None”. Moreover, the IC50 with HIV-1 IIIB (wild-type) (setting [4]) is 0.014 ± 0.00244 µM; in series [2] (setting [5]) it was over 1 µM.
For `N#CCc1ccc(Nc2nc(N)n(S(=O)(=O)c3cnc(Cl)nc3)n2)cc1` [Compound 49, 2-[4-[[5-amino-1-(2-chloropyrimidin-5-yl)sulfonyl-1,2,4-triazol-3-yl]amino]phenyl]-acetonitrile], the “Qualitative Cell Toxicity within inhibition range” value with TZM-bl cells is on record as “None”. Also, the IC50 in the series with HIV-1 IIIB (wild-type) (setting [4]) was 0.108 ± 0.0318 µM; in series [2] (setting [5]) it was over 1 µM.
The like results for `CC(=O)Nc1nc(C)c(S(=O)(=O)n2nc(Nc3ccc(CC#N)cc3)nc2N)s1` [Compound 50, N-[5-[[5-amino-3-[4-(cyanomethyl)anilino]-1,2,4-triazol-1-yl]sulfonyl]-4-methyl-thiazol-2-yl]acetamide] were, in that order, “None”, 0.0194 ± 0.0038 µM and over 1 µM.
Regarding `N#Cc1ccc(Nc2nc(N)n(S(=O)(=O)c3c(Cl)nc4sccn34)n2)cc1C#N` [Compound 51, 4-[[5-amino-1-(6-chloroimidazo[2,1-b]thiazol-5-yl)sulfonyl-1,2,4-triazol-3-yl]amino]-phthalonitrile], the “Qualitative Cell Toxicity within inhibition range” value in the series on TZM-bl cells is reported as “None”. Further, the IC50 was 0.000223 ± 5.5e-05 µM in the series with HIV-1 IIIB (wild-type) (setting [4]) and over 1 µM in series [2] (setting [5]).
The like results for `Cc1nc(-c2ccc(S(=O)(=O)n3nc(Nc4ccc(C#N)cc4)nc3N)s2)cs1` [Compound 52] were, in that order, “None”, 0.00214 ± 0.000812 µM and over 1 µM.
